Experimental data taken from patent US9533978B2 (AstraZeneca AB, priority 2009, dated 2017).
Where a name gives a salt, the structure may show the parent alone.

Target: T1, Recombinant human TLR7 (Homo sapiens, UniProt Q9NYK1)
T1 construct: expressed in transfected cells; host or cells: HEK293 cell line stably expressing the pNiFty2-SEAP reporter plasmid; TLR7 in vector pUNO, blasticidin selection
T1 sequence (Q9NYK1 27-1049): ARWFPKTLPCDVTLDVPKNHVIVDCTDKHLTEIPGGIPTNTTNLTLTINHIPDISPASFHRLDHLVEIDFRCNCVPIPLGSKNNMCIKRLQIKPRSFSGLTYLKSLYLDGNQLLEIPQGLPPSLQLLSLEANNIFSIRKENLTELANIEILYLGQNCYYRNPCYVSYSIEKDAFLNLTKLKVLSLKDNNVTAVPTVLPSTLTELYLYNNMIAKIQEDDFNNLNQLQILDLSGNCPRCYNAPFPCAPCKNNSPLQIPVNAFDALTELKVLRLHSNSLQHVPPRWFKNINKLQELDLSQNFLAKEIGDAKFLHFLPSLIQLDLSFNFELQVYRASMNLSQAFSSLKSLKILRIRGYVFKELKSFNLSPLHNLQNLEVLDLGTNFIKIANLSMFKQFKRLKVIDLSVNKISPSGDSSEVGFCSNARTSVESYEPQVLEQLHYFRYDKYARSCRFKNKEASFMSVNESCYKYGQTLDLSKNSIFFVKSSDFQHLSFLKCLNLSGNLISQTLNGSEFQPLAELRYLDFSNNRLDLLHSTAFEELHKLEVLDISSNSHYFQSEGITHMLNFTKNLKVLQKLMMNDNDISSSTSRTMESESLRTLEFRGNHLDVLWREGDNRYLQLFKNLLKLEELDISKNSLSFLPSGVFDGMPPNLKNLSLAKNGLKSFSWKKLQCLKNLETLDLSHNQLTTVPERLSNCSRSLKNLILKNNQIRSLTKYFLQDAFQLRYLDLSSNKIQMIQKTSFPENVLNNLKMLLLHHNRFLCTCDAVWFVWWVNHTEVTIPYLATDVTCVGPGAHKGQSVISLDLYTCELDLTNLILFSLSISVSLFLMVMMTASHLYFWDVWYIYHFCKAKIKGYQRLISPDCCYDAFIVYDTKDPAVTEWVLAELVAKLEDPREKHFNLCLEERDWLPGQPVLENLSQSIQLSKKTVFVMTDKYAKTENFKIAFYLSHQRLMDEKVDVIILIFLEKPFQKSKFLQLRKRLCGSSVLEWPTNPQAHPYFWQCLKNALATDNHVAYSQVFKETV
Assay: Human TLR7 assay (HEK293 SEAP reporter)
Format: cell-based
Details: degree of TLR7 activation; SEAP induction in HEK293 cells stably expressing recombinant human TLR7 and pNiFty2-SEAP reporter, overnight incubation at 37° C., 0.1% (v/v) DMSO
Experimental: The ability of compounds to activate TLR7 in vitro was assessed using the human TLR7 assay described below.
Recombinant human TLR7 was stably expressed in a HEK293 cell line already stably expressing the pNiFty2-SEAP reporter plasmid; integration of the reporter gene was maintained by selection with the antibiotic zeocin. The most common variant sequence of human TLR7 (represented by the EMBL sequence AF240467) was cloned into the mammalian cell expression vector pUNO and transfected into this reporter cell-line. Transfectants with stable expression were selected using the antibiotic blasticidin. In this reporter cell-line, expression of secreted alkaline phosphatase (SEAP) is controlled by an NFkB/ELAM-1 composite promoter comprising five NFkB sites combined with the proximal ELAM-1 promoter. TLR signaling leads to the translocation of NFkB and activation of the promoter results in expression of the SEAP gene. TLR7-specific activation was assessed by determining the level of SEAP produced following overnight incubation of the cells at 37° C. with the standard compound in the presence of 0.1% (v/v) dimethylsulfoxide (DMSO). Concentration dependent induction of SEAP production by compounds was expressed as the concentration of compound which produced half of the maximal level of SEAP induction for that compound (EC50).

| Compound | EC50 | pEC50 |
| --- | --- | --- |
| CCCCCNc1nc(N)nc(C)c1Cc1cccc(O)c1 [Example 24, 3-((2-Amino-4-methyl-6-(pentylamino)pyrimidin-5-yl)methyl)phenol] | 5010 nM |  |
| CCC[C@@H](CO)Nc1nc(N)nc(C)c1Cc1ccc(C(=O)OCCCCN(C)C)cc1OC [Example 15, (S)-4-(Dimethylamino)butyl 4-((2-amino-4-(1-hydroxypentan-2-yl-amino)-6-methylpyrimidin-5-yl)methyl)-3-methoxybenzoate benzenesulfonate salt] | 126 nM |  |
| CCCCCNc1nc(N)nc(C)c1Cc1ccccc1OCC [Example 21, 5-(2-Ethoxybenzyl)-6-methyl-N^4-pentylpyrimidine-2,4-diamine] | 316 nM |  |
| CCCCCNc1nc(N)nc(C)c1Cc1ccc(OCCCN2CCOCC2)cc1OC [Example 37, 5-(2-Methoxy-4-(3-morpholinopropoxy)benzyl)-6-methyl-N^4-pentylpyrimidine-2,4-diamine] | 7.94 nM |  |
| CCCCCNc1nc(N)nc(C)c1Cc1ccc(OCCCN(C)C)cc1OC [Example 11, 5-(4-(3-(Dimethylamino)propoxy)-2-methoxybenzyl)-6-methyl-N^4-pentylpyrimidine-2,4-diamine] | 2.51 nM |  |
| CCCCCNc1nc(N)nc(C)c1Cc1ccc(OCCCN(C)C)cc1C [Example 33, 5-(4-(3-(Dimethylamino)propoxy)-2-methylbenzyl)-6-methyl-N^4-pentylpyrimidine-2,4-diamine] | 251 nM |  |
| CCCCCNc1nc(N)nc(C)c1Cc1cccc(OCCN(C)C)c1 [Example 27, 5-(3-(2-(Dimethylamino)ethoxy)benzyl)-6-methyl-N^4-pentylpyrimidine-2,4-diamine] | 398 nM |  |
| CCCCCNc1nc(N)nc(C)c1Cc1ccc(C(=O)OC)cc1F [Example 18, Methyl 4-((2-amino-4-methyl-6-(pentylamino)pyrimidin-5-yl)methyl)-3-fluorobenzoate] | 2000 nM |  |
| CCCCCNc1nc(N)nc(C)c1Cc1ccc(OCCCN2CCCC2)cc1 [Example 9, 6-Methyl-N^4-pentyl-5-(4-(3-(pyrrolidin-1-yl)propoxy)benzyl)pyrimidine-2,4-diamine] | 63.1 nM |  |
| CCC[C@@H](CO)Nc1nc(N)nc(C)c1Cc1ccc(C(=O)OC)cc1OC [Example 13, (S)-Methyl 4-((2-amino-4-(1-hydroxypentan-2-ylamino)-6-methyl-pyrimidin-5-yl)methyl)-3-methoxybenzoate] | 100 nM |  |
| CCCCCNc1nc(N)nc(C)c1Cc1ccc(O)cc1 [Example 2, 4-(2-Amino-4-methyl-6-pentylamino-pyrimidin-5-ylmethyl)-phenol] | 1260 nM |  |
| CCCCCNc1nc(N)nc(C)c1Cc1ccc(OCCN(C)Cc2ccccc2)cc1 [Example 7, 5-(4-(2-(Benzyl(methyl)amino)ethoxy)benzyl)-6-methyl-N^4-pentyl-pyrimidine-2,4-diamine] | 631 nM |  |
| CCCCCNc1nc(N)nc(C)c1Cc1cccc(OCCN2CCCC2)c1 [Example 28, 6-Methyl-N^4-pentyl-5-(3-(2-(pyrrolidin-1-yl)ethoxy)benzyl)pyrimidine-2,4-diamine] | 1260 nM |  |
| CCCCCNc1nc(N)nc(C)c1Cc1ccc(C(=O)OC)cc1OC [Example 12, Methyl 4-((2-amino-4-methyl-6-(pentylamino)pyrimidin-5-yl)methyl)-3-methoxybenzoate] | 63.1 nM |  |
| 5-(4-(2-(Dimethylamino)ethoxy)benzyl)-6-methyl-N-pentylpyrimidine-2,4-diamine [Example 3] |  | 7.2 |
| CCCCCNc1nc(N)nc(C)c1Cc1ccc(OC)cc1 [Example 1, 5-(4-Methoxybenzyl)-6-methyl-N^4-pentylpyrimidine-2,4-diamine] | 2000 nM |  |
| CCCCCNc1nc(N)nc(C)c1Cc1cccc(OC)c1 [Example 23, 5-(3-Methoxybenzyl)-6-methyl-N4-pentylpyrimidine-2,4-diamine] | 2510 nM |  |
| CCCCCNc1nc(N)nc(C)c1Cc1ccc(OCCN2CCCCC2)cc1 [Example 5, 6-Methyl-N^4-pentyl-5-(4-(2-(piperidin-1-yl)ethoxy)benzyl)pyrimidine-2,4-diamine] | 126 nM |  |
| COC(=O)Cc1cccc([C@@H](CCO)Nc2nc(N)nc(C)c2Cc2ccc(OCCCN(C)C)cc2OC)c1 [Example 35, (R)-Methyl 2-(3-(1-(2-amino-5-(4-(3-(dimethylamino)propoxy)-2-methoxybenzyl)-6-methylpyrimidin-4-ylamino)-3-hydroxypropyl)phenyl)acetate] | 316 nM |  |
| CCCCCNc1nc(N)nc(C)c1Cc1ccccc1OCCCN(C)C [Example 22] | 1260 nM |  |
| CCCCCNc1nc(N)nc(C)c1Cc1ccccc1OC [Example 19, 5-(2-Methoxybenzyl)-6-methyl-N4-pentylpyrimidine-2,4-diamine] | 63.1 nM |  |
| CCCCCNc1nc(N)nc(C)c1Cc1ccccc1O [Example 20, 2-((2-Amino-4-methyl-6-(pentylamino)pyrimidin-5-yl)methyl)phenol] | 126 nM |  |
| CCCCCNc1nc(N)nc(C)c1Cc1cccc(CCCN(C)C)c1 [Example 32, 5-(3-(3-(Dimethylamino)propyl)benzyl)-6-methyl-N^4-pentylpyrimidine-2,4-diamine] | 251 nM |  |

Second part, the compound after the results:

| EC50 | pEC50 | Compound |
| --- | --- | --- |
| 10 nM |  | CCCC[C@@H](CCO)Nc1nc(N)nc(C)c1Cc1ccc(C(=O)OC)cc1OC [Example 14, (S)-Methyl 4-((2-amino-4-(1-hydroxyheptan-3-ylamino)-6-methyl-pyrimidin-5-yl)methyl)-3-methoxybenzoate] |
| 501 nM |  | CCCCCNc1nc(N)nc(C)c1Cc1ccc(OCCCO)cc1 [Example 8, 3-(4-((2-Amino-4-methyl-6-(pentylamino)pyrimidin-5-yl)methyl)-phenoxy)propan-1-ol] |
| 3160 nM |  | CCCCCNc1nc(N)nc(C)c1Cc1cc(C(=O)OC)ccc1F [Example 17, Methyl 3-((2-amino-4-methyl-6-(pentylamino)pyrimidin-5-yl)methyl)-4-fluorobenzoate] |
| 100 nM |  | CCCCCNc1nc(N)nc(C)c1Cc1ccc(CCCN(C)C)cc1 [Example 31, 5-(4-(3-(Dimethylamino)propyl)benzyl)-6-methyl-N^4-pentylpyrimidine-2,4-diamine] |
| 631 nM |  | CCCCCNc1nc(N)nc(C)c1Cc1cccc(OCCN2CCCCC2)c1 [Example 26, 6-Methyl-N^4-pentyl-5-(3-(2-(piperidin-1-yl)ethoxy)benzyl)pyrimidine-2,4-diamine] |
| 100 nM |  | CCCCCNc1nc(N)nc(C)c1Cc1ccc(C#CCN(C)C)cc1 [Example 30, 5-(4-(3-(Dimethylamino)prop-1-ynyl)benzyl)-6-methyl-N4-pentyl-pyrimidine-2,4-diamine] |
| 2000 nM |  | COC(=O)Cc1cccc([C@@H](CCO)Nc2nc(N)nc(C)c2Cc2ccc(OCCCN(C)C)cc2)c1 [Example 34, (R)-Methyl 2-(3-(1-(2-amino-5-(4-(3-(dimethylamino)propoxy)benzyl)-6-methylpyrimidin-4-ylamino)-3-hydroxypropyl)phenyl)acetate] |
| 100 nM |  | CCCCCNc1nc(N)nc(C)c1Cc1ccc(OCCN2CCCC2)cc1 [Example 6, 6-Methyl-N^4-pentyl-5-(4-(2-(pyrrolidin-1-yl)ethoxy)benzyl)pyrimidine-2,4-diamine] |
| 50.1 nM |  | CCCCCNc1nc(N)nc(C)c1Cc1cc(C(=O)OC)ccc1OC [Example 16, Methyl 3-((2-amino-4-methyl-6-(pentylamino)pyrimidin-5-yl)methyl)-4-methoxybenzoate] |
| 6.31 nM |  | CCCCCNc1nc(N)nc(C)c1Cc1ccc(OCCCN2CCN(C)CC2)cc1OC [Example 38, 5-(2-Methoxy-4-(3-(4-methylpiperazin-1-yl)propoxy)benzyl)-6-methyl-N^4-pentylpyrimidine-2,4-diamine] |
